Measured values as given in ChEMBL document CHEMBL1124945, “1-(substituted-benzyl)imidazole-2(3H)-thione inhibitors of dopamine beta-hydroxylase” (J Med Chem, 1990).

Target: T1, Dopamine beta-hydroxylase (Rattus norvegicus, UniProt Q05754)
T1 sequence (Q05754 whole entry): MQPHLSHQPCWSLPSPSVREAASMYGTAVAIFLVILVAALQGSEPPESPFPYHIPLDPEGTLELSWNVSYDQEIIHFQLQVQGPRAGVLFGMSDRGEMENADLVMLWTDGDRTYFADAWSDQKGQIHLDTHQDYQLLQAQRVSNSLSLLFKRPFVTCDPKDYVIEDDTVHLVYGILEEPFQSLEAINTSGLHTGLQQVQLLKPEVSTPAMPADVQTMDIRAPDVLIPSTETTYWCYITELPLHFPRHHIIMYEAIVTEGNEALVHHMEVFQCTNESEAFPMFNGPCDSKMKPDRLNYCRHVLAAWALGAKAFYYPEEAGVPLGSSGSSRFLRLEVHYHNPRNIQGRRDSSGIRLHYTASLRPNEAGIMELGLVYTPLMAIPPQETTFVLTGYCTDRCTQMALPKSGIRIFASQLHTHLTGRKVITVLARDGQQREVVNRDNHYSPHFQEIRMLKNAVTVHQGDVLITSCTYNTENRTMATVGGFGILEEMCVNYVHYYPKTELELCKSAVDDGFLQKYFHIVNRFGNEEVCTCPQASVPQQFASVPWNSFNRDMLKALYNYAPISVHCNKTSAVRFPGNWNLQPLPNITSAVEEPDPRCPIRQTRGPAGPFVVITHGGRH
Test: Inhibition of dopamine beta-hydroxylase (DbetaH) […]

SMILES	IC50 [µM]
S=c1[nH]ccn1Cc1ccccc1	33.1
Oc1ccc(Cn2cc[nH]c2=S)cc1C(F)(F)F	120
S=c1[nH]ccn1Cc1c(Cl)cccc1Cl	708
O=[N+]([O-])c1ccc(Cn2cc[nH]c2=S)cc1	52.5
S=c1[nH]ccn1Cc1cc(Cl)cc(Cl)c1	2.4
COc1ccccc1Cn1cc[nH]c1=S	74.1
S=c1[nH]ccn1Cc1cccc(Cl)c1Cl	52.5
COc1ccc(Cn2cc[nH]c2=S)cc1F	74.1
COc1c(F)cc(Cn2cc[nH]c2=S)cc1F	36.3
S=c1[nH]ccn1Cc1c(Cl)cc(Cl)cc1Cl	102
S=c1[nH]ccn1Cc1ccccc1Cl	355
COc1c(Cl)cc(Cn2cc[nH]c2=S)cc1Cl	46.8
S=c1[nH]ccn1Cc1ccc(Cl)cc1	95.5
COc1ccc(Cn2cc[nH]c2=S)cc1OC	339
S=c1[nH]ccn1Cc1ccc(Cl)cc1Cl	17
Oc1c(F)cc(Cn2cc[nH]c2=S)cc1F	0.0741
COc1ccc(Cn2cc[nH]c2=S)cc1Br	83.2
S=c1[nH]ccn1Cc1cc(Cl)ccc1Cl	97.7
Oc1cccc(Cn2cc[nH]c2=S)c1	148
O=[N+]([O-])c1cc(Cn2cc[nH]c2=S)ccc1O	30.9
Oc1c(F)c(F)c(Cn2cc[nH]c2=S)c(F)c1F	61.7
COc1ccc(Cn2cc[nH]c2=S)cc1C	69.2
COc1cc(Cl)c(Cn2cc[nH]c2=S)c(Cl)c1	155

SMILES	IC50 [µM]
S=c1[nH]ccn1Cc1ccc(Br)cc1	115
Cc1cc(Cn2cc[nH]c2=S)ccc1O	49
COc1ccc(Cn2cc[nH]c2=S)cc1[N+](=O)[O-]	355
Fc1cccc(Cn2cc[nH]c2=S)c1	5.62
Oc1c(Cl)cc(Cn2cc[nH]c2=S)cc1Cl	0.676
Oc1ccccc1Cn1cc[nH]c1=S	575
Oc1ccc(Cn2cc[nH]c2=S)cc1F	1.51
FC(F)(F)c1ccc(Cn2cc[nH]c2=S)cc1	200
Cc1ccccc1Cn1cc[nH]c1=S	339
Cc1ccc(Cn2cc[nH]c2=S)cc1	148
COc1cccc(OC)c1Cn1cc[nH]c1=S	501
S=c1[nH]ccn1Cc1ccc(Cl)c(Cl)c1	28.2
Oc1ccc(Cn2cc[nH]c2=S)cc1Br	12
S=c1[nH]ccn1Cc1cccc(Cl)c1	12
Oc1cc(Cl)c(Cn2cc[nH]c2=S)c(Cl)c1	75.9
COc1ccc(Cn2cc[nH]c2=S)cc1C(F)(F)F	174
Fc1ccc(Cn2cc[nH]c2=S)cc1	46.8
Oc1ccc(Cn2cc[nH]c2=S)cc1Cl	2
Oc1ccc(Cn2cc[nH]c2=S)cc1O	2.19
Cc1cccc(C)c1Cn1cc[nH]c1=S	1000
COc1cccc(Cn2cc[nH]c2=S)c1	158
COc1ccc(Cn2cc[nH]c2=S)cc1	204
